In patent US20200054633A1 (priority 2017, published 2020):
Where two headings read alike, the source gives them in different places.

Settings: OST placebo, N=74
Excerpt: This study followed a randomized, double-blind, placebo-controlled, parallel-group, multicenter design.
Analysis set for safety: Safety Set included all subjects who received at least 1 dose of study drug.

For `O=C(O)[C@H]1C2CCC(CC2)[C@@H]1Nc1nc(-c2c[nH]c3ncc(F)cc23)ncc1F` [Compound (1), Pimodivir], the “Any Serious TEAE” value (300 mg) was 0, the “Any Serious TEAE at least possibly related to study medication” value (300 mg) was 0 and the “Any Severe (Grade 3) TEAE” value (300 mg) was 2 (2.7%). For the same compound, the “Any TEAE” value (300 mg) was 32, the “Any TEAE at least possibly related to study medication” value (300 mg) was 9 and the “Any TEAE leading to a temporary stop of study medication” value (300 mg) was 2. The “Any TEAE leading to permanent stop of study medication” value (300 mg) was 7, the “Any TEAE with fatal outcome” value (300 mg) was 0 and the “Grade 3 TEAE: Anaemia” value (300 mg) was 0. The “Grade 3 TEAE: Balance disorder” value (300 mg) was 0, the “Grade 3 TEAE: Blood and lymphatic system disorders” value (300 mg) was 0 and the “Grade 3 TEAE: Blood creatine phosphokinase increased” value (300 mg) was 0. For the same compound, the “Grade 3 TEAE: Bronchitis” value (300 mg) was 1 (1.4%), the “Grade 3 TEAE: Constipation” value (300 mg) was 0 and the “Grade 3 TEAE: Diarrhoea” value (300 mg) was 0. For the same compound, the “Grade 3 TEAE: Fatigue” value (300 mg) was 1 (1.4%), the “Grade 3 TEAE: Gastrointestinal disorders” value (300 mg) was 0 and the “Grade 3 TEAE: General disorders and administration site conditions” value (300 mg) was 1 (1.4%). The “Grade 3 TEAE: Hyperkalaemia” value (300 mg) was 0, the “Grade 3 TEAE: Infections and infestations” value (300 mg) was 1 (1.4%) and the “Grade 3 TEAE: Investigations” value (300 mg) was 0. The “Grade 3 TEAE: Lymphopenia” value (300 mg) was 0, the “Grade 3 TEAE: Metabolism and nutrition disorders” value (300 mg) was 0 and the “Grade 3 TEAE: Nausea” value (300 mg) was 0. The “Grade 3 TEAE: Nervous system disorders” value (300 mg) was 1 (1.4%), the “Grade 3 TEAE: Neutropenia” value (300 mg) was 0 and the “Grade 3 TEAE: Neutrophil count decreased” value (300 mg) was 0. The “Grade 3 TEAE: Protein urine present” value (300 mg) was 0, the “Grade 3 TEAE: Syncope” value (300 mg) was 1 (1.4%) and the “Grade 3 TEAE: Thrombocytopenia” value (300 mg) was 0. For the same compound, the “Grade 3 TEAE: Vomiting” value (300 mg) was 0, the “TEAE: Abdominal discomfort” value (300 mg) was 0 n (%) and the “TEAE: Abdominal pain” value (300 mg) was 0 n (%). For the same compound, the “TEAE: Abdominal pain upper” value (300 mg) was 0 n (%), the “TEAE: Abdominal tenderness” value (300 mg) was 0 n (%) and the “TEAE: Alanine aminotransferase increased” value (300 mg) was 1 n (%). The “TEAE: All events” value (300 mg) was 32 n (%), the “TEAE: Anaemia” value (300 mg) was 0 n (%) and the “TEAE: Aphthous stomatitis” value (300 mg) was 0 n (%). The “TEAE: Aspartate aminotransferase increased” value (300 mg) was 1 n (%), the “TEAE: Atrioventricular block first degree” value (300 mg) was 0 n (%) and the “TEAE: Back pain” value (300 mg) was 1 n (%). For the same compound, the “TEAE: Bacterial vaginosis” value (300 mg) was 0 n (%), the “TEAE: Balance disorder” value (300 mg) was 0 n (%) and the “TEAE: Blood and lymphatic system disorders” value (300 mg) was 3 n (%). For the same compound, the “TEAE: Blood bicarbonate decreased” value (300 mg) was 0 n (%), the “TEAE: Blood bilirubin decreased” value (300 mg) was 0 n (%) and the “TEAE: Blood bilirubin increased” value (300 mg) was 1 n (%). For the same compound, the “TEAE: Blood creatine phosphokinase increased” value (300 mg) was 2 n (%), the “TEAE: Blood creatinine increased” value (300 mg) was 1 n (%) and the “TEAE: Blood glucose increased” value (300 mg) was 1 n (%). The “TEAE: Blood potassium increased” value (300 mg) was 0 n (%), the “TEAE: Blood pressure diastolic increased” value (300 mg) was 0 n (%) and the “TEAE: Blood urine” value (300 mg) was 1 n (%). For the same compound, the “TEAE: Bradycardia” value (300 mg) was 0 n (%), the “TEAE: Bronchitis” value (300 mg) was 1 n (%) and the “TEAE: Cardiac disorders” value (300 mg) was 1 n (%). For the same compound, the “TEAE: Constipation” value (300 mg) was 0 n (%), the “TEAE: Contusion” value (300 mg) was 0 n (%) and the “TEAE: Cough” value (300 mg) was 0 n (%). The “TEAE: Decreased appetite” value (300 mg) was 0 n (%), the “TEAE: Dehydration” value (300 mg) was 0 n (%) and the “TEAE: Diabetes mellitus” value (300 mg) was 1 n (%). The “TEAE: Diarrhoea” value (300 mg) was 5 n (%), the “TEAE: Dizziness” value (300 mg) was 0 n (%) and the “TEAE: Dry mouth” value (300 mg) was 0 n (%). For the same compound, the “TEAE: Dry skin” value (300 mg) was 0 n (%), the “TEAE: Dysgeusia” value (300 mg) was 0 n (%) and the “TEAE: Dyspepsia” value (300 mg) was 1 n (%). For the same compound, the “TEAE: Dyspnoea” value (300 mg) was 1 n (%), the “TEAE: Dysuria” value (300 mg) was 0 n (%) and the “TEAE: Ear and labyrinth disorders” value (300 mg) was 0 n (%). The “TEAE: Ear discomfort” value (300 mg) was 0 n (%), the “TEAE: Ecchymosis” value (300 mg) was 0 n (%) and the “TEAE: Electrocardiogram ST segment depression” value (300 mg) was 0 n (%). For the same compound, the “TEAE: Enteritis” value (300 mg) was 0 n (%), the “TEAE: Fatigue” value (300 mg) was 1 n (%) and the “TEAE: Fungal infection” value (300 mg) was 0 n (%). For the same compound, the “TEAE: Gamma-glutamyltransferase increased” value (300 mg) was 0 n (%), the “TEAE: Gastrointestinal disorders” value (300 mg) was 10 n (%) and the “TEAE: General disorders and administration site conditions” value (300 mg) was 2 n (%). The “TEAE: Glomerular filtration rate decreased” value (300 mg) was 4 n (%), the “TEAE: Gout” value (300 mg) was 1 n (%) and the “TEAE: HIV antibody positive” value (300 mg) was 0 n (%). For the same compound, the “TEAE: HIV test positive” value (300 mg) was 0 n (%), the “TEAE: Haematuria” value (300 mg) was 1 n (%) and the “TEAE: Haemoglobin decreased” value (300 mg) was 2 n (%). For the same compound, the “TEAE: Haemoglobin increased” value (300 mg) was 0 n (%), the “TEAE: Headache” value (300 mg) was 2 n (%) and the “TEAE: Hepatic enzyme increased” value (300 mg) was 0 n (%). For the same compound, the “TEAE: Hepatitis C” value (300 mg) was 1 n (%), the “TEAE: Herpes simplex” value (300 mg) was 0 n (%) and the “TEAE: Hyperglycaemia” value (300 mg) was 0 n (%). The “TEAE: Hyperhidrosis” value (300 mg) was 0 n (%), the “TEAE: Hyperkalaemia” value (300 mg) was 0 n (%) and the “TEAE: Hyperproteinaemia” value (300 mg) was 1 n (%). For the same compound, the “TEAE: Hypertension” value (300 mg) was 0 n (%), the “TEAE: Hyperuricaemia” value (300 mg) was 0 n (%) and the “TEAE: Hypokalaemia” value (300 mg) was 0 n (%). The “TEAE: Hyponatraemia” value (300 mg) was 1 n (%), the “TEAE: Hypophosphataemia” value (300 mg) was 2 n (%) and the “TEAE: Hypothermia” value (300 mg) was 1 n (%). For the same compound, the “TEAE: Increased appetite” value (300 mg) was 0 n (%), the “TEAE: Infections and infestations” value (300 mg) was 5 n (%) and the “TEAE: Injury, poisoning and procedural complications” value (300 mg) was 0 n (%). The “TEAE: Insomnia” value (300 mg) was 2 n (%), the “TEAE: Investigations” value (300 mg) was 8 n (%) and the “TEAE: Irritability” value (300 mg) was 0 n (%). The “TEAE: Labyrinthitis” value (300 mg) was 0 n (%), the “TEAE: Leukopenia” value (300 mg) was 0 n (%) and the “TEAE: Lymph node pain” value (300 mg) was 1 n (%). For the same compound, the “TEAE: Lymphadenopathy” value (300 mg) was 1 n (%), the “TEAE: Lymphopenia” value (300 mg) was 0 n (%) and the “TEAE: Metabolism and nutrition disorders” value (300 mg) was 4 n (%). The “TEAE: Micturition urgency” value (300 mg) was 0 n (%), the “TEAE: Middle ear effusion” value (300 mg) was 0 n (%) and the “TEAE: Migraine” value (300 mg) was 0 n (%). The “TEAE: Muscle spasms” value (300 mg) was 0 n (%), the “TEAE: Musculoskeletal and connective tissue disorders” value (300 mg) was 2 n (%) and the “TEAE: Musculoskeletal chest pain” value (300 mg) was 1 n (%). The “TEAE: Myalgia” value (300 mg) was 0 n (%), the “TEAE: Myocarditis” value (300 mg) was 0 n (%) and the “TEAE: Nasal congestion” value (300 mg) was 0 n (%). For the same compound, the “TEAE: Nausea” value (300 mg) was 3 n (%), the “TEAE: Nephropathy” value (300 mg) was 0 n (%) and the “TEAE: Nervous system disorders” value (300 mg) was 4 n (%). The “TEAE: Neutropenia” value (300 mg) was 0 n (%), the “TEAE: Neutrophil count decreased” value (300 mg) was 1 n (%) and the “TEAE: Oedema peripheral” value (300 mg) was 0 n (%). For the same compound, the “TEAE: Oral herpes” value (300 mg) was 0 n (%), the “TEAE: Otitis media” value (300 mg) was 0 n (%) and the “TEAE: Paraesthesia” value (300 mg) was 1 n (%). For the same compound, the “TEAE: Percussion test abnormal” value (300 mg) was 1 n (%), the “TEAE: Petechiae” value (300 mg) was 0 n (%) and the “TEAE: Pharyngitis streptococcal” value (300 mg) was 0 n (%). The “TEAE: Pneumonia chlamydial” value (300 mg) was 0 n (%), the “TEAE: Protein urine” value (300 mg) was 1 n (%) and the “TEAE: Protein urine present” value (300 mg) was 0 n (%). For the same compound, the “TEAE: Proteinuria” value (300 mg) was 3 n (%), the “TEAE: Pruritus” value (300 mg) was 0 n (%) and the “TEAE: Psychiatric disorders” value (300 mg) was 3 n (%). The “TEAE: Rash” value (300 mg) was 0 n (%), the “TEAE: Red blood cells urine” value (300 mg) was 1 n (%) and the “TEAE: Renal and urinary disorders” value (300 mg) was 6 n (%). The “TEAE: Renal failure” value (300 mg) was 1 n (%), the “TEAE: Renal failure chronic” value (300 mg) was 1 n (%) and the “TEAE: Renal impairment” value (300 mg) was 1 n (%). For the same compound, the “TEAE: Respiratory, thoracic and mediastinal disorders” value (300 mg) was 1 n (%), the “TEAE: Rhonchi” value (300 mg) was 1 n (%) and the “TEAE: Sensation of foreign body” value (300 mg) was 0 n (%). The “TEAE: Sinus bradycardia” value (300 mg) was 0 n (%), the “TEAE: Sinus congestion” value (300 mg) was 0 n (%) and the “TEAE: Sinus tachycardia” value (300 mg) was 1 n (%). The “TEAE: Sinusitis” value (300 mg) was 3 n (%), the “TEAE: Skin and subcutaneous tissue disorders” value (300 mg) was 0 n (%) and the “TEAE: Sleep disorder” value (300 mg) was 0 n (%). The “TEAE: Sleep terror” value (300 mg) was 1 n (%), the “TEAE: Syncope” value (300 mg) was 1 n (%) and the “TEAE: Tachycardia” value (300 mg) was 0 n (%). For the same compound, the “TEAE: Thrombocytopenia” value (300 mg) was 1 n (%), the “TEAE: Tinnitus” value (300 mg) was 0 n (%) and the “TEAE: Tongue discolouration” value (300 mg) was 1 n (%). The “TEAE: Tremor” value (300 mg) was 0 n (%), the “TEAE: Upper respiratory tract infection” value (300 mg) was 0 n (%) and the “TEAE: Urinary tract infection” value (300 mg) was 0 n (%). The “TEAE: Urine ketone body present” value (300 mg) was 1 n (%), the “TEAE: Vascular disorders” value (300 mg) was 0 n (%) and the “TEAE: Vertigo” value (300 mg) was 0 n (%). The “TEAE: Vomiting” value (300 mg) was 1 n (%), the “TEAE: Wheezing” value (300 mg) was 1 n (%) and the “TEAE: White blood cell count decreased” value (300 mg) was 0 n (%). For the same compound, the “Worst grade 1 or 2 TEAE” value (300 mg) was 30, the “Worst grade 3 TEAE” value (300 mg) was 2 and the “Worst grade 3 or 4 TEAE” value (300 mg) was 2. The “Worst grade 4 TEAE” value (300 mg) was 0, the “Any Serious TEAE” value (600 mg) was 1 (1.4%) and the “Any Serious TEAE at least possibly related to study medication” value (600 mg) was 0. For the same compound, the “Any Severe (Grade 3) TEAE” value (600 mg) was 5 (6.8%).
